Laboratory results taken from PubChem BioAssay (NCI).
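These data come from cells grown in 96-well plates and exposed to compound for 48 hours at five concentrations. GI50: concentration for 50% inhibition of growth. TGI: concentration producing complete growth inhibition.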

What was measured:
Assay in all cases: NCI-60 cell line screen, 48 h
ACHN renal = tested on: ACHN renal
SN12C renal = tested on: SN12C renal
NCI-H522 lung = tested on: NCI-H522 lung
SK-MEL-5 melanoma = tested on: SK-MEL-5 melanoma
SF-268 CNS = tested on: SF-268 CNS
OVCAR-5 ovarian = tested on: OVCAR-5 ovarian
SK-MEL-2 melanoma = tested on: SK-MEL-2 melanoma
HCT-15 colon = tested on: HCT-15 colon
KM12 colon = tested on: KM12 colon
COLO 205 colon = tested on: COLO 205 colon

Row | SMILES | TGI (ACHN renal) [µM] | TGI (SN12C renal) [µM] | TGI (NCI-H522 lung) [µM] | TGI (SK-MEL-5 melanoma) [µM] | TGI (SF-268 CNS) [µM] | TGI (OVCAR-5 ovarian) [µM] | TGI (SK-MEL-2 melanoma) [µM] | TGI (HCT-15 colon) [µM] | TGI (KM12 colon) [µM] | TGI (COLO 205 colon) [µM] | GI50 (ACHN renal) [µM] | GI50 (SN12C renal) [µM] | GI50 (NCI-H522 lung) [µM] | GI50 (SK-MEL-5 melanoma) [µM] | GI50 (SF-268 CNS) [µM] | GI50 (OVCAR-5 ovarian) [µM] | GI50 (SK-MEL-2 melanoma) [µM] | GI50 (HCT-15 colon) [µM] | GI50 (KM12 colon) [µM] | GI50 (COLO 205 colon) [µM]
1 | Cc1[nH]c2ccccc2c1-c1cc(-c2cc(-c3c(C)[nH]c4ccccc34)nc(N)n2)nc(N)n1 | > 100 | > 100 | > 100 | > 100 | > 100 | > 100 | > 100 | > 100 | > 100 | > 100 | – | – | – | – | – | – | – | – | – | –
2 | C[C@@H]1Cc2c([nH]c3ccccc23)[C@@H](c2c(F)cc(NC3CN(CCCF)C3)cc2F)N1CC(F)(F)CO | 17.1 | 23.1 | 16.7 | 3.68 | 19.5 | 27.9 | 16.5 | 12.7 | 18 | 5.71 | 4.8 | 9.69 | 4.16 | 1.92 | 4.78 | 14.1 | 4.37 | 3.5 | 4.21 | 2.35
3 | O=[N+]([O-])/C=C/c1cc2ccccc2[nH]1 | 31.1 | 37.2 | 24.2 | 28.2 | 36.4 | 37.1 | 34.6 | 53.6 | 25 | 32.7 | – | – | – | – | – | – | – | – | – | –
4 | CN(C)C/C=C/C(=O)Nc1cc2c(Nc3ccc(F)c(Cl)c3F)ncnc2cc1OCCOC(F)F | 1.08 | 4.52 | 1.35 | 3.39 | 3.89 | 13.7 | 3.36 | 2.96 | 8.23 | 3.55 | < 0.01 | 0.136 | < 0.0152 | 1.6 | 0.71 | 0.136 | 1.46 | 0.491 | 2.04 | 1.03
5 | COc1cc2c(cc1OC)C(OC)N(C)c1c-2ccc2cc3c(cc12)OCO3 (stereo not given) | > 75 | 21.1 | 0.766 | 6.76 | > 20.9 | 11.8 | 5.02 | > 75 | 4.45 | 2.95 | – | – | – | – | – | – | – | – | – | –
6 | O=C(O)c1cc2ccccc2c(N=Nc2cc(C(F)(F)F)ccc2Cl)c1O | > 100 | > 100 | > 100 | > 100 | > 100 | > 100 | > 100 | > 100 | > 100 | > 100 | – | – | – | – | – | – | – | – | – | –
7 | Cc1nc(CN2CCCCC2)c(O)c(=O)[nH]1 | > 100 | > 100 | > 100 | > 100 | > 100 | > 100 | > 100 | > 100 | > 100 | > 100 | – | – | – | – | – | – | – | – | – | –
8 | COC(=O)c1c(O)c([N+](=O)[O-])cc2c1c1c(n2Cc2ccccc2)C(=O)c2ccccc2C1=O | > 100 | 65.7 | 65.6 | 14.7 | 76.9 | 66.7 | > 100 | > 100 | 78.5 | 6.82 | 29.8 | 25.5 | 23.3 | 3.63 | 8.48 | 28.6 | 27.2 | 34.6 | 21.5 | 2.18
9 | CN(CC#N)C1CCCC[C@H]1O (stereo not given in full) | > 100 | > 100 | > 100 | > 100 | > 100 | > 100 | > 100 | > 100 | > 100 | > 100 | – | – | – | – | – | – | – | – | – | –
10 | CS(=O)(=O)Nc1cccc(-c2cc(-c3ccccc3Cl)c(C#N)c(N)n2)c1 | 17.6 | 24.4 | 3.89 | 13.6 | 19.1 | 19.9 | 15.8 | 15.8 | 13.1 | 4.88 | 0.679 | 0.722 | 0.294 | 0.448 | 1.05 | 3.22 | 0.602 | 0.402 | 0.443 | 0.472
11 | N#CC(C#N)N=Nc1ccc(Br)cc1 | 7.89 | 9.51 | 3.41 | 34.1 | > 100 | > 72.6 | 36.1 | 15.9 | > 100 | 3.25 | 1.99 | 2.64 | 0.543 | 5.13 | 13.1 | 4.8 | 8.97 | 3.22 | 9.65 | 1.43
12 | OC(COc1ccc(F)cc1)Cn1cnc2c(Cl)ncnc21 (stereo not given) | > 100 | > 100 | > 100 | > 100 | > 100 | > 100 | > 100 | > 100 | > 100 | > 100 | 62.4 | > 100 | > 100 | 81.4 | 97.4 | > 100 | > 100 | 32.4 | > 100 | > 100
13 | O=C(Nc1cccc(Cc2cccc(NC(=O)c3ccccc3)c2)c1)c1ccccc1 | > 100 | > 100 | > 100 | > 100 | > 100 | > 100 | > 100 | > 100 | > 100 | > 100 | – | – | – | – | – | – | – | – | – | –
14 | CN1CCN(c2cc(C(=O)Nc3cc4cc(-c5cnn(C)c5)ccc4cn3)ccn2)CC1 | 0.548 | 12.7 | 0.327 | 0.331 | 6.59 | 11.9 | 0.364 | 2.46 | 11.9 | 0.494 | 0.0597 | 0.123 | 0.0472 | 0.155 | 0.2 | 0.308 | 0.113 | 0.0666 | 0.071 | 0.0673
15 | O=Cc1ccc(-c2ccc(-c3nc4ccccc4o3)cc2)s1 | > 100 | 81.3 | > 100 | 45.2 | 81.5 | > 100 | > 100 | > 100 | > 100 | > 100 | 31.5 | 29.4 | 47.3 | 21.8 | 28.4 | 78.4 | 63.4 | 34.2 | 30.3 | 32.1
